The values below come from patent US8158158B2, “Composite biocidal particles” (Arch Chemicals, Inc., priority 1998, dated 2012).

Data set [1] has as its system hard and soft fouling. The data set can be described thus: Antifouling efficacy of paint on fiberglass panels submerged in seawater. It counts as in vivo. The conditions noted are these: single biocide, explanatory statement. The procedure:
The antifouling efficacy of the composition of Example 1 was evaluated by mixing […] of it into 90 grams of a paint base. The commercial paint comprised:
This paint was painted onto fiberglass panels (8″×10″) and (12″×6″), which were then submerged in seawater for eight months (and running) in Miami, Fla.

The conditions of data set [2]: cited from earlier work; for solubility: background statement.

Like-named read-outs stand apart in the source and are kept apart here.

As to `On1ccccc1=S.On1ccccc1=S.[Cu]` [Copper pyrithione, copper pyrithione], in data set [1], the efficacy against algae entry was “most effective against algae”. In addition, the solubility result in data set [2] is “about 1 ppm”. Besides, the water solubility result in data set [2] (in seawater) was “less than 1 ppm”.
For `[Cu].[O]=[Cu]` [cuprous oxide], in data set [1], the efficacy against algae result is “relatively ineffective against algae” and the “resistance to barnacle formation” value is reported as “strongly resisting barnacle formation”.
Regarding `[Na+].[O-][n+]1ccccc1[S-]` [sodium salt of pyrithione, sodium pyrithione], the water solubility entry in data set [2] (water) is “about 53 % by weight”.
For zinc pyrithione, the solubility in data set [2] is given as 6-10 ppm. For the same compound, the water solubility in data set [2] (water) was 6-10 ppm.
